Laboratory results taken from patent US20090226500A1, “SUTURES AND ANTI-SCARRING AGENTS” (Angiotech Pharmaceuticals, Inc, priority 2006, published 2009).

Experiments:
[1] = system: Smooth muscle cells; assay: Proliferation of smooth muscle cells; assay type: cell-based; conditions: 72 hours, CYQUANT; read-out: IC50 proliferation of smooth muscle cells
Outline: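 Smooth muscle cells at 600 cells/well, exposed to paclitaxel (DMSO stocks 10^−8 to 10^−2 M) in triplicate for 72 h at 37 °C. Proliferation read with CyQUANT GR dye in lysis buffer.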

[2] = system: K. pneumoniae ATCC13883 C238; assay: MIC microtitre broth dilution, K. pneumoniae; assay type: cell-based; conditions: K. pneumoniae ATCC13883 C238 wt Gram−, 24 h
Protocol: (§1) MIC assays were conducted essentially as described by Amsterdam, D 1996, “Susceptibility testing of antimicrobials in liquid media”, p. 52-111, in Loman, V, ed. Antibiotics in laboratory medicine, 4th ed Williams and Wilkins, Baltimore, Md.

[3] = system: S. pyogenes C721; assay: MIC microtitre broth dilution, S. pyogenes; assay type: cell-based; conditions: S. pyogenes C721 wt Gram+, Todd Hewitt broth
Protocol: as §1

[4] = system: S. epidermidis C621; assay: MIC microtitre broth dilution, S. epidermidis; assay type: cell-based; conditions: S. epidermidis C621 wt Gram+, 24 h
Protocol: as §1

[5] = system: MCP-1 production by THP-1 cells; assay: MCP-1 production by macrophages; assay type: cell-based, human; conditions: THP-1 cells stimulated with opsonized zymosan, 24 hours; read-out: IC50 MCP-1 production
Outline: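 THP-1 cells (1×10^6/well, 10% FCS) stimulated with 1 mg/ml serum-opsonized zymosan plus compound added from DMSO stocks at 1/1000, 24 h at 37° C. MCP-1 in supernatants quantified by sandwich ELISA (TMB read-out) against a recombinant human MCP-1 standard curve, triplicates, background-subtracted.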

[6] = system: E. coli UB1005 C498; assay: MIC microtitre broth dilution, E. coli; assay type: cell-based; conditions: E. coli UB1005 C498 wt Gram−, 24 h
Protocol: as §1

[7] = system: S. aureus ATCC25923 C622; assay: MIC microtitre broth dilution, S. aureus; assay type: cell-based; conditions: S. aureus ATCC25923 C622 wt Gram+, 24 h
Protocol: as §1

[8] = system: P. aeruginosa PAE/K799 H187; assay: MIC microtitre broth dilution, P. aeruginosa; assay type: cell-based; conditions: P. aeruginosa PAE/K799 H187 wt Gram−, 24 h
Protocol: as §1

[9] = system: nitric oxide production by macrophages (murine macrophage cell line RAW 264.7); assay: Nitric oxide production by macrophages; assay type: cell-based
[10] = system: TNFα production by THP-1 cells; assay: TNF-alpha production by macrophages; assay type: cell-based, human; conditions: THP-1 cells stimulated with opsonized zymosan, 24 hours; read-out: IC50 TNFα production
Protocol: The human macrophage cell line, THP-1 was plated in a 12-well plate such that each well contains 1×10^6 cells in 2 ml of media containing 10% FCS. Opsonized zymosan was prepared by resuspending 20 mg of zymosan A in 2 ml of ddH2O and homogenizing until a uniform suspension was obtained. Homogenized zymosan was pelleted at 250 g and resuspended in 4 ml of human serum for a final concentration of 5 mg/ml and incubated in a 37° C. water bath for 20 minutes to enable opsonization.
THP-1 cells were stimulated to produce TNFα by the addition of 1 mg/ml opsonized zymosan. […] Each drug concentration was tested in triplicate wells. Plates were incubated at 37° C. for 24 hours.
After a 24-hour stimulation, supernatants were collected to quantify TNFα production. TNFα concentrations in the supernatants were determined by ELISA using recombinant human TNFα to obtain a standard curve A 96-well MaxiSorb plate was coated with 100 μL of anti-human TNFα Capture Antibody diluted in Coating Buffer (0.1M sodium carbonate pH 9 5) overnight at 4° C. The dilution of Capture Antibody used was lot-specific and was determined empirically. Capture antibody was then aspirated and the plate washed 3 times with Wash Buffer (PBS, 0.05% TWEEN-20) Plates were blocked for 1 hour at room temperature with 200 μL/well of Assay Diluent (PBS, 10% FCS pH 7.0). After blocking, plates were washed 3 times with Wash Buffer. […] Sample supernatants and standards were assayed in triplicate and were incubated at room temperature for 2 hours after addition to the plate coated with Capture Antibody. The plates were washed 5 times and incubated with 100 μL of Working Detector (biotinylated anti-human TNFα detection antibody+avidin-HRP) for 1 hour at room temperature. Following this incubation, the plates were washed 7 times and 100 μL of Substrate Solution (tetramethylbenzidine, H2O2) was added to plates and incubated for 30 minutes at room temperature. […] Mean absorbance was determined from triplicate data readings and the mean background was subtracted. TNFα concentration values were obtained from the standard curve.

Structure (SMILES) | IC50 [1] [nM] | Minimum inhibitory concentration [2] | Minimum inhibitory concentration [3] | Minimum inhibitory concentration [4] | IC50 [5] [nM] | Minimum inhibitory concentration [6] | Minimum inhibitory concentration [7] | Minimum inhibitory concentration [8] | IC50 [9] [nM] | IC50 [10] [nM]
Nc1ncnc2c1ccn2[C@@H]1O[C@H](CO)[C@@H](O)[C@H]1O [tubercidin] | 30 | N | N | N | 56 | N | N | N | – | –
Nc1ccn([C@@H]2O[C@H](CO)[C@@H](O)[C@@H]2O)c(=O)n1 [cytarabine] | 85 | N | N | N | – | N | N | N | – | –
CC[C@@]1(O)C(=O)OCc2c1cc1n(c2=O)Cc2cc3ccccc3nc2-1 [camptothecin] | – | N | N | 10^−4 Molar | – | N | N | N | – | –
NC(=O)NO [hydroxyurea] | – | N | 10^−4 Molar | N | – | N | N | 10^−4 Molar | – | –
N.N.[Cl][Pt][Cl] [cisplatin] | – | N | N | N | – | N | N | 10^−4 Molar | – | –
COc1cccc2c1C(=O)c1c(O)c3c(c(O)c1C2=O)C[C@@](O)(C(=O)CO)C[C@@H]3O[C@H]1C[C@H](N)[C@H](O)[C@H](C)O1 [doxorubicin] | 64 | 10^−6 Molar | 10^−7 Molar | 10^−6 Molar | – | 10^−4 Molar | 10^−5 Molar | 10^−5 Molar | – | –
COc1cc([C@@H]2c3cc4c(cc3[C@@H](O[C@@H]3O[C@@H]5CO[C@@H](C)O[C@H]5[C@H](O)[C@H]3O)[C@H]3COC(=O)[C@H]23)OCO4)cc(OC)c1O [etoposide] | 320 | 10^−5 Molar | 10^−5 Molar | 10^−6 Molar | – | N | 10^−5 Molar | N | – | –
C/C(=N\N=C(N)N)c1cc(NC(=O)CCCCCCCCC(=O)Nc2cc(/C(C)=N/N=C(N)N)cc(/C(C)=N/N=C(N)N)c2)cc(/C(C)=N/N=C(N)N)c1 [CNI-1493] | – | – | – | – | 0.02 | – | – | – | 249 | 0.15
CN(Cc1cnc2nc(N)nc(N)c2n1)c1ccc(C(=O)N[C@@H](CCC(=O)O)C(=O)O)cc1 [methotrexate] | – | 10^−6 Molar | 10^−6 Molar | N | – | N | 10^−5 Molar | N | – | –
